Test results from patent US20050222259A1, “Methods of activating PPAR-alpha nuclear receptors in mammals” (priority 2004, published 2005).

Experiment: oral application of conjugated fatty acids: appetite, satiety and food intake
Assay type: in vivo
Settings: for appetite-reducing effect compared with other CLA isomers and non-conjugated linoleic acid: comparison of isomers

Compound	appetite-reducing effect compared with other CLA isomers and non-conjugated linoleic acid	appetite-reducing effect compared with other CLA isomers and non-conjugated linoleic acid (listed as cis-9,trans-11 isomer of conjugated linoleic acid)	effect on appetite, satiety and food intake (oral application)
CCCCCC/C=C/C=C\CCCCCCCC(=O)O (single isomer, unassigned) [cis-9,trans-11 CLA-isomer, cis-9,trans-11 isomer of conjugated linoleic acid]	most efficacious in inhibiting appetite	more pronounced	–
conjugated linoleic acid [CLA]	–	–	reduction of appetite
